Assay results taken from patent US9023876B2, “Compounds and methods for regulating integrins” (Adhaere Pharmaceuticals, Inc., priority 2010, dated 2015).

Key:
integrin CD11b/CD18 [1] = target: T1, integrin CD11b/CD18 (Homo sapiens, UniProt P11215); assay: K562 cell adhesion assay, K562 CD11b/CD18 cells on immobilized fibrinogen (Fg); format: cell-based
T1 construct: expressed in transfected cells; host or cells: K562
Method: (§1) Cell adhesion assays with immobilized ligands were performed as previously described. Assays with all different K562 cell lines (K562, K562 CD11b/CD18 and K562 E320A) were performed in an identical fashion. Briefly, 384-well Highbind microtiter plates were coated with a 30 μL solution of ligand in Phosphate Buffered Saline, pH 7.4 containing 1 mM each of Ca^2+ and Mg^2+ ions (PBS^++) overnight at 4° C. Ligand Fg was coated at a concentration of […] and iC3b at […]. Heterodimer specific mAb IB4 (ascites) was coated at a 1:100 dilution. Subsequently, the non-specific sites in the wells were blocked by incubation with 1% non-fat milk in Tris Buffered Saline (TBS), pH 7.4, at room temperature for 1 h, except for the neutrophil assay, where the wells were blocked with TBS containing 1% gelatin. Next, the wells were washed three times with TBS. K562 cells were suspended in the assay buffer (TBS containing 1 mM each of Ca^2+ and Mg^2+ ions (TBS^++)) and were transferred to the ligand-coated wells (30,000 cells/well). Stock solution of the leukadherin family of small molecule agonists was prepared by dissolving the compounds in DMSO at a concentration of 2-10 mM. Final concentration of DMSO in the assay was approximately 1%. […] Cells remaining adherent were fixed using formaldehyde and were quantitated using imaging microscopy, as previously described. […]

[2] = target: T2, mutant integrin CD11bE320A/CD18 (Homo sapiens, UniProt P11215, E336A); assay: Adhesion of K562 E320A cells to immobilized Fg; format: cell-based
T2 construct: expressed in transfected cells; host or cells: K562
Method: K562 cells (ATCC) stably transfected with wild-type integrin CD11b/CD18 (K562 CD11b/CD18) have been described previously. Mutant CD11bE320A has been described previously. K562 cells stably transfected with mutant integrin CD11bE320A/CD18 (K562 E320A) were generated according to literature protocols. All cell lines were maintained in Iscove's Modified Dulbecco's Medium (IMDM) supplemented with 10% heat-inactivated fetal bovine serum, 50 IU/ml penicillin and streptomycin and 0.5 mg/ml G418.
Cell adhesion assays with immobilized ligands were performed as previously described. Assays with all different K562 cell lines (K562, K562 CD11b/CD18 and K562 E320A) were performed in an identical fashion. Briefly, 384-well Highbind microtiter plates were coated with a 30 μL solution of ligand in Phosphate Buffered Saline, pH 7.4 containing 1 mM each of Ca^2+ and Mg^2+ ions (PBS^++) overnight at 4° C. Ligand Fg was coated at a concentration of […] and iC3b at […]. Heterodimer specific mAb IB4 (ascites) was coated at a 1:100 dilution. […] Cells remaining adherent were fixed using formaldehyde and were quantitated using imaging microscopy, as previously described. […]

integrin CD11b/CD18 [3] = target: T1, integrin CD11b/CD18; assay: K562 CD11b/CD18 cell adhesion to immobilized iC3b; format: cell-based; conditions: increasing amounts of compound
Method: as §1

[4] = test system: WT mouse macrophages and neutrophils; assay: Secretion of pro-inflammatory cytokines by stimulated WT mouse macrophages and neutrophils; format: cell-based; conditions: cells stimulated with LPS, TNFalpha or ILbeta
Source text: We surmised that leukadherins may also suppress pro-inflammatory cytokine express-ion in leukocytes. […] In an experiment to test the effect of leukadherin treatment on secretion of pro-inflammatory cytokines by leukocytes, we stimulated WT mouse macrophages and neutrophils with LPS, TNFalpha or ILbeta in the absence or presence of two different concentrations of agonist LA1 and measured levels of pro-inflammatory cytokine in the cell supernatant. […] Leukadherins decrease secretion of pro-inflammatory factors, including microparticles, by beta2-integrin expressing cells. Additionally, they increase secretion of anti-inflammatory factors, such as IL-10.

WT B6 mice = assay: Thioglycollate-induced peritonitis, WT mice; format: in vivo, mouse; conditions: vs vehicle
Method: Thioglycollate-induced peritonitis was performed as previously described, using 8-10 week old WT B6 and CD11b^−/− B6 mice. Leukadherin agonists were administered thirty min prior to intra peritoneal (i.p.) thioglycollate (3%) injection. LA1 and LA2 ([…] of 20 mM solution in saline) were administered intra venously (i.v.). LA3 was administered i.p. (1 mL of 20 mM solution in saline). To evaluate peritoneal neutrophil recruitment, […], the peritoneal lavage was collected and the number of emigrated neutrophils was quantified using double positive cells for GR-1 and Mac-1 staining as described.
To determine the effects of LA1-3 on inflammatory responses in vivo, we monitored their effects on neutrophil recruitment upon acute thioglycollate-induced peritonitis in mice.

O=C(O)c1ccc(-c2ccc(/C=C3\SC(=S)N(Cc4ccccc4)C3=O)o2)cc1 [LA1]
EC50 (integrin CD11b/CD18 [1]; K562 CD11b/CD18 cells, immobilized Fg, read-out: EC50 (effective concentration for 50% increase in adhesion), CD11b/CD18 dependent cell adhesion to Fg): 4 µM
relative affinity for CD11b/CD18 compared with IMB-10 (integrin CD11b/CD18 [1]; cell-based adhesion assay): higher affinity
binding of K562 E320A to Fg [2]: selectively increased
K562 CD11b/CD18 cells adhering to immobilized iC3b (integrin CD11b/CD18 [3]): increase binding of CD11b/CD18 to iC3b in a dose-dependent fashion
secretion of inflammatory factors (IL-6, TNFa, IL-1b, IFNg, MMP-9, soluble uPAR) in supernatant [4]: significantly decreased
peritoneal neutrophil accumulation at 4 h and 12 h (WT B6 mice; TGC-induced peritonitis): significantly reduced
peritoneal neutrophils after 24 h (WT B6 mice; TGC-induced peritonitis): comparable numbers
reduction of peritoneal neutrophil accumulation (WT B6 mice; WT mice, given 30 min prior to thioglycollate, 4 h): 40%
